# Measured values reported in US8940740B2, “Small molecule inhibitors of bacterial motility and a high throughput screening assay for their identification” (priority 2010, dated 2015).
# System: V. cholerae biofilm formation
# Assay: not given
# Assay type: cell-based, Vibrio cholerae
# Settings: not given
row,Structure (SMILES),Biofilm formation
1,Cc1ccc(C)c(Nc2nc(NCCO)c3ccccc3n2)c1 [AB00343282],negative effect on biofilm formation

# System: cholera toxin and toxin-co-regulated pilus production by strain C7258
# Assay: not given
# Assay type: cell-based, Vibrio cholerae
# Settings: not given
row,Structure (SMILES),V. cholerae virulence gene expression
1,Cc1ccc(C)c(Nc2nc(NCCO)c3ccccc3n2)c1 [AB00343282],inhibits V. cholerae virulence gene expression

# System: Vibrio cholerae strain C7258
# Assay: Swarm agar plates stabbed with saturated cultures
# Assay type: cell-based
# Settings: swarm agar stabbed with saturated culture of strain C7258; listed as Q24DA
row,Structure (SMILES),Motility in swarm agar (spread from inoculation site)
1,Cc1ccc(C)c(Nc2nc(NCCO)c3ccccc3n2)c1 [AB00343282],motility inhibition

# Same assay, conditions: swarm agar stabbed with saturated culture of strain C7258; listed as quinazoline 2,4 diamine
row,Structure (SMILES),Motility in swarm agar (spread from inoculation site)
1,Cc1ccc(C)c(Nc2nc(NCCO)c3ccccc3n2)c1 [AB00343282],completely abolished motility

# System: V. cholerae 0395, V. parahaemolyticus, V. vulnificus
# Assay: Swarm agar plates with different pathogenic Vibrios
# Assay type: cell-based, Vibrio
# Settings: polar (SMF) vs lateral (PMF) flagellum
# Description: V. cholerae and V. vulnificus make a single polar flagellum (Fla) powered by sodium motive force (SMF). […] (A) V. cholerae 0395; (B) V. parahaemolyticus B22 (Fla^+ Laf^+); (C) V. parahaemolyticus LM5674 (Fla^+ Laf^+); (D) V. parahaemolyticus LM1017 (Fla^+ Laf^−); (E) V. parahaemolyticus LM5392 (Fla^− Laf^+); (F) V. parahaemolyticus 7890 (Fla^+ Laf^−); (G) V. vulnificus LAM624.
row,Structure (SMILES),Flagellum specificity among pathogenic Vibrios
1,Cc1ccc(C)c(Nc2nc(NCCO)c3ccccc3n2)c1 [AB00343282],specific for the polar flagellum powered by SMF

# System: Vibrio cholerae strain C7258
# Assay: Bacterial motility in 384-well soft agar HTS assay, off-site OD615 reading
# Assay type: cell-based
# Settings: Vibrio cholerae, C7258; inhibition of bacterial motility, optical density read off-site from inoculation point; read-out: Motility OD IC50
row,Structure (SMILES),IC50 [µg/mL]
1,Cc1ccc(C)c(Nc2nc(NCCO)c3ccccc3n2)c1 [AB00343282],8.76
2,COc1ccc(C)cc1Nc1nc(N)c2ccccc2n1 [compound 27284],81.2
3,Cc1ccc(Nc2nc(NCc3ccco3)c3ccccc3n2)cc1 [compound 27296],3.77
4,Oc1ccccc1Nc1nc(NCc2ccco2)c2ccccc2n1 [compound 27297],37.8
5,Fc1ccccc1Nc1nc(NCc2ccccc2)c2ccccc2n1 [compound 27299],6.37
6,COc1ccc(Nc2nc(N3CCCC3)nc3ccccc23)c(OC)c1 [compound 27301],46.6
7,c1ccc(CN2CCN(c3nc(NCc4ccco4)c4ccccc4n3)CC2)cc1 [compound 27307],34.9
8,O=[N+]([O-])c1ccc(N2CCN(c3nc(N4CCN(CCO)CC4)nc4ccccc34)CC2)cc1 [compound 27310],77.2
9,OCCNc1nc(NCc2ccco2)nc2ccccc12 [compound 27908],45.6
10,OCCNc1nc(Nc2cccc(O)c2)nc2ccccc12 [compound 27910],22.2
11,OCCNc1nc(Nc2ccccc2O)nc2ccccc12 [compound 27911],29.5
12,OCCNc1nc(Nc2ccccc2F)nc2ccccc12 [compound 27912],4.89
13,Cc1cc(C)cc(Nc2nc(NCCO)c3ccccc3n2)c1 [compound 27914],6.96
14,Cc1ccc(O)c(Nc2nc(NCCO)c3ccccc3n2)c1 [compound 27915],29.9
15,COc1ccccc1Nc1nc(NCCO)c2ccccc2n1 [compound 27916],49.5
16,OCCNc1nc(NCCc2cccs2)nc2ccccc12 [compound 27917],19.7
17,Cc1ccc(Nc2nc(NCCO)c3ccccc3n2)c(C)c1 [compound 27918],6.1
18,OCCNc1nc(Nc2ccc3c(c2)OCO3)nc2ccccc12 [compound 27919],10.8
19,c1coc(CNc2nc(NCC3CCCO3)c3ccccc3n2)c1 (stereo not drawn) [compound 27926],24.7
20,Oc1ccccc1Nc1nc(NCC2CCCO2)c2ccccc2n1 (stereo not drawn) [compound 27928],16.5
21,Cc1cc(C)cc(Nc2nc(NCC3CCCO3)c3ccccc3n2)c1 (stereo not drawn) [compound 27929],6.89
22,FC(F)(F)c1cccc(Nc2nc(NCC3CCCO3)c3ccccc3n2)c1 (stereo not drawn) [compound 27930],7.59

# Same assay, conditions: assay validation; phenamil at 100 μM
row,Structure (SMILES),Effect on motility (OD615 reading)
1,"NC(=Nc1ccccc1)NC(=O)c1nc(Cl)c(N)nc1N [phenamil, reference compound]",inhibitory effect on motility

# Same assay, conditions: pilot screen control wells, average
row,Structure (SMILES),Control average OD615 in pilot screen
1,"NC(=Nc1ccccc1)NC(=O)c1nc(Cl)c(N)nc1N [phenamil, reference compound]","Ave-0.10 OD615, CV-3.2"
2,"CN(C)[C@@H]1C(O)=C(C(N)=O)C(=O)[C@@]2(O)C(O)=C3C(=O)c4c(O)cccc4[C@@](C)(O)[C@H]3C[C@@H]12 [tetracycline, reference compound]","Ave-0.10 OD615, CV-3.6"

# System: polar flagellum / flagellin FlaA of V. cholerae strain C7258
# Assay: Flagellum assembly by transmission electron microscopy and FlaA western blot
# Assay type: cell-based, Vibrio cholerae
# Settings: Western blot analysis
row,Structure (SMILES),Level of expression of major flagellin protein FlaA
1,Cc1ccc(C)c(Nc2nc(NCCO)c3ccccc3n2)c1 [AB00343282],nor did it affect

# Same assay, conditions: transmission electron microscopy
row,Structure (SMILES),"Expression, secretion and assembly of wild type flagellum"
1,Cc1ccc(C)c(Nc2nc(NCCO)c3ccccc3n2)c1 [AB00343282],does not inhibit

# System: Vibrio cholerae strain C7258
# Assay: Growth of strain C7258 in broth containing test compound
# Assay type: cell-based
# Settings: strain C7258, LB medium; Q24DA 10 μg/mL (FIG. 2)
row,Structure (SMILES),Effect on growth rate in broth
1,Cc1ccc(C)c(Nc2nc(NCCO)c3ccccc3n2)c1 [AB00343282],no effect on growth rate

# System: Vibrio cholerae strain C7258
# Assay: Growth with PMF blocked by CCCP (Na+ bioenergetics)
# Assay type: cell-based
# Settings: LB pH 8.6, 0.3 M NaCl, CCCP 5 μM, Q24DA 10 μg/mL
row,Structure (SMILES),Effect on growth inhibition by blocking the PMF
1,Cc1ccc(C)c(Nc2nc(NCCO)c3ccccc3n2)c1 [AB00343282],enhances the inhibitory effect of blocking the PMF

# System: Vibrio cholerae strain C7258
# Assay: Bacterial viability/toxicity readout with alamarBlue in 384-well soft agar HTS assay
# Assay type: cell-based
# Settings: Vibrio cholerae, C7258; toxicity of compound to bacteria as measured by alamarBlue; read-out: Inhibition IC50
row,Structure (SMILES),IC50 [µg/mL]
1,Cc1ccc(C)c(Nc2nc(NCCO)c3ccccc3n2)c1 [AB00343282],25.7
2,COc1ccc(C)cc1Nc1nc(N)c2ccccc2n1 [compound 27284],> 100
3,Cc1ccc(Nc2nc(NCc3ccco3)c3ccccc3n2)cc1 [compound 27296],11.1
4,Oc1ccccc1Nc1nc(NCc2ccco2)c2ccccc2n1 [compound 27297],81.9
5,Fc1ccccc1Nc1nc(NCc2ccccc2)c2ccccc2n1 [compound 27299],100
6,COc1ccc(Nc2nc(N3CCCC3)nc3ccccc23)c(OC)c1 [compound 27301],82
7,c1ccc(CN2CCN(c3nc(NCc4ccco4)c4ccccc4n3)CC2)cc1 [compound 27307],37.9
8,O=[N+]([O-])c1ccc(N2CCN(c3nc(N4CCN(CCO)CC4)nc4ccccc34)CC2)cc1 [compound 27310],55.4
9,OCCNc1nc(NCc2ccco2)nc2ccccc12 [compound 27908],> 100
10,OCCNc1nc(Nc2cccc(O)c2)nc2ccccc12 [compound 27910],47
11,OCCNc1nc(Nc2ccccc2O)nc2ccccc12 [compound 27911],34.2
12,OCCNc1nc(Nc2ccccc2F)nc2ccccc12 [compound 27912],14.4
13,Cc1cc(C)cc(Nc2nc(NCCO)c3ccccc3n2)c1 [compound 27914],10.1
14,Cc1ccc(O)c(Nc2nc(NCCO)c3ccccc3n2)c1 [compound 27915],23
15,COc1ccccc1Nc1nc(NCCO)c2ccccc2n1 [compound 27916],38.1
16,OCCNc1nc(NCCc2cccs2)nc2ccccc12 [compound 27917],27
17,Cc1ccc(Nc2nc(NCCO)c3ccccc3n2)c(C)c1 [compound 27918],15.6
18,OCCNc1nc(Nc2ccc3c(c2)OCO3)nc2ccccc12 [compound 27919],29.8
19,c1coc(CNc2nc(NCC3CCCO3)c3ccccc3n2)c1 (stereo not drawn) [compound 27926],35.6
20,Oc1ccccc1Nc1nc(NCC2CCCO2)c2ccccc2n1 (stereo not drawn) [compound 27928],19.4
21,Cc1cc(C)cc(Nc2nc(NCC3CCCO3)c3ccccc3n2)c1 (stereo not drawn) [compound 27929],6.11
22,FC(F)(F)c1cccc(Nc2nc(NCC3CCCO3)c3ccccc3n2)c1 (stereo not drawn) [compound 27930],81.2

# Same assay, conditions: assay validation; phenamil at 100 μM
row,Structure (SMILES),Effect on viability (alamarBlue reading)
1,"NC(=Nc1ccccc1)NC(=O)c1nc(Cl)c(N)nc1N [phenamil, reference compound]",little effect on viability
